Experimental data taken from patent US11578067B2, “Compound, and method for producing regulatory T cells” (Kyoto University, priority 2017, dated 2023).

Key:
naive Th cells = assay: Induction from naive T cells to Tregs by CDK8/19 inhibitory drugs (CD25+ Foxp3+ cells, EC150); type: cell-based, mouse; details: concentration giving 150% CD25+ Foxp3+ cells versus 0.1% DMSO, 44 hours, geometric average of three trials
Procedure: The naive T cells were generated by the following method. […] Naive Th cells were prepared from the cell suspension using Naive CD4^+ T cell Isolation Kit, mouse (manufactured by Miltenyi Biotec). […] Further, Anti-Biotin MicroBeads and CD44 MicroBeads were added, followed by incubation at 4° C. for 10 minutes and then a centrifugation operation (300xg, 10 minutes). After the removal of the supernatant, the cells were resuspended in MEM and applied to an LS column (manufactured by Miltenyi Biotech). The cells contained in the flow-through liquid were used in the subsequent experiments. The prepared naive Th cells (2×10^5 cells) were stimulated with an anti-CD3/CD28 antibody (Gibco Dynabeads Mouse T-Activator CD3/CD28; manufactured by Thermo Fisher Scientific) in the presence of various CDK8/19 inhibitory drugs (usage amount: from 1 nM to 10,000 nM [[μM]]) at 5% CO2 at 37° C. […] The stained cells were measured using Canto II (manufactured by BD) by a flow cytometry method, and a proportion of CD25^+ Foxp3^+ cells in CD4^+ viable cells was analyzed using FlowJo (manufactured by FlowJo).

CDK8 = CDK8 (Homo sapiens, UniProt P49336); assay: CDK8 kinase activity measurement (QSS Assist CDK8/CycC_ELISA kit)
OVA-induced asthma model = assay: OVA-induced asthma model, airway resistance after methacholine; type: in vivo, mouse; details: 0.5 mg/kg oral once a day, 34 days, 25 mg/mL methacholine
[1] = test system: mouse actively-sensitized antibody-induced nasal allergy model; assay: Actively-sensitized antibody-induced nasal allergy model, nasal rubbing; type: in vivo
Procedure: The mouse actively-sensitized antibody-induced nasal allergy model was generated by the following method. Seven-week-old BALB/c mice (manufactured by SLC, male) were initially sensitized by intraperitoneal administration of 200 μL of a mixed liquid of OVA (manufactured by Wako Pure Chemical Industries, Ltd.) (0.5 mg/mL) (100 μg/mouse), 5 mg/mL of aluminum hydroxide (ALUM; manufactured by Wako Pure Chemical Industries, Ltd.), and 1.5 μg/mL of pertussis toxin (manufactured by Wako Pure Chemical Industries, Ltd.). Next, 5 days after the initial sensitization, as additional sensitization, OVA (50 μg/mouse) was administered into the dorsal skin of the mice to perform systemic sensitization. After that, OVA (100 μg/mouse) was administered to the mice as nasal drops at a frequency of once a day as local sensitization for 8 days from day 18 after the initial sensitization to elicit a nasal allergy symptom due to active sensitization.
A 0.5% (w/v) methylcellulose solution serving as a vehicle was used for a vehicle control group, and dexamethasone (manufactured by Tokyo Chemical Industry Co., Ltd.) was used for a positive control.

Th1-type asthma model = assay: Th1-type asthma model, airway resistance after methacholine; type: in vivo, mouse; details: 0.5 mg/kg oral once a day, 17 days, 25 mg/mL methacholine
CDK19 = CDK19 (Homo sapiens, UniProt Q9BWU1); assay: CDK19 kinase activity measurement (QSS Assist CDC2L6/CycC_ELISA kit)
[2] = test system: CD4+ CD25− Foxp3− CD62L+ CD44− naive T cells; assay: In vitro Foxp3 induction in naive T cells (Foxp3-GFP, flow cytometry); type: cell-based, mouse; details: hTGF-β1 2 ng/mL alone, anti-CD3/CD28, 72 hours
Procedure: The eFox mice were generated in accordance with a method described in Science. […] The prepared total lymphocytic cells were stained with an anti-CD4 antibody (RM-4.5; manufactured by BD), an anti-CD62L antibody (MEL-14; manufactured by BD), and an anti-CD44 antibody (IM7; manufactured by BD), and CD4^+ CD25^− Foxp3^− CD62L^+ CD44^− naive T cells were prepared using FACSAria™ II (manufactured by BD).
The cells after the treatment were stained with an anti-CD4 antibody (manufactured by BD), and a proportion of Foxp3-GFP-positive cells was analyzed by a flow cytometry method.

[3] = test system: human naive CD4+ T cells (CD4+ CD25− CD45RA+ Foxp3−); assay: Foxp3 induction in human naive CD4+ T cells with anti-TGF-β antibody or TGF-β; type: cell-based; details: hTGF-β1 2 ng/mL alone, hIL-2, 72 hours
Procedure: Human naive CD4^+ T cells (CD4^+ CD25^− CD45RA^+ Foxp3^−) were prepared from human peripheral blood mononuclear cells (manufactured by Wako Pure Chemical Industries, Ltd.) in the same manner as in Example 17. As shown in the following items (i) to (iv), the prepared naive T cells (2×10^5 cells) were stimulated using 5 μL of an anti-CD3/CD28 antibody (Gibco Dynabeads Human T-Activator CD3/CD28; manufactured by Thermo Fisher Scientific) in the presence/absence of 2 ng/mL of hTGF-β1 (manufactured by R&D) or 10 μg/mL of an anti-TGF-β antibody (manufactured by R&D), hIL-2 (manufactured by Shionogi & Co., Ltd.) (50 U/ml), and 100 nM of Compound 1 Salt, and treated under a 5% CO2 atmosphere at 37° C. for 72 hours.
(§1) The cells after the treatment were stained with an anti-CD4 antibody (manufactured by BD) and an anti-Foxp3 antibody (manufactured by eBioscience), and a proportion of Foxp3-positive cells was analyzed by a flow cytometry method.

[4] = test system: human effector memory CD4+ T cells (CD4+ CD25− CD45RA− Foxp3−); assay: Foxp3 induction in human effector memory CD4+ T cells; type: cell-based; details: TGF-β 2 ng/mL alone, hIL-2, 72 hours
Procedure: Human peripheral blood mononuclear cells (manufactured by Wako Pure Chemical Industries, Ltd.) were stained using an anti-CD4 antibody (RPA-T4; manufactured by BD), an anti-CD25 antibody (M-A251; manufactured by BD), and an anti-CD45RA antibody (HI100; manufactured by BD), and human effector memory CD4^+ T cells (CD4^+ CD25^− CD45RA^− Foxp3^−) were prepared using FACSAria™ II (manufactured by BD).
as §1

Sequence of CDK19 (Q9BWU1 whole entry): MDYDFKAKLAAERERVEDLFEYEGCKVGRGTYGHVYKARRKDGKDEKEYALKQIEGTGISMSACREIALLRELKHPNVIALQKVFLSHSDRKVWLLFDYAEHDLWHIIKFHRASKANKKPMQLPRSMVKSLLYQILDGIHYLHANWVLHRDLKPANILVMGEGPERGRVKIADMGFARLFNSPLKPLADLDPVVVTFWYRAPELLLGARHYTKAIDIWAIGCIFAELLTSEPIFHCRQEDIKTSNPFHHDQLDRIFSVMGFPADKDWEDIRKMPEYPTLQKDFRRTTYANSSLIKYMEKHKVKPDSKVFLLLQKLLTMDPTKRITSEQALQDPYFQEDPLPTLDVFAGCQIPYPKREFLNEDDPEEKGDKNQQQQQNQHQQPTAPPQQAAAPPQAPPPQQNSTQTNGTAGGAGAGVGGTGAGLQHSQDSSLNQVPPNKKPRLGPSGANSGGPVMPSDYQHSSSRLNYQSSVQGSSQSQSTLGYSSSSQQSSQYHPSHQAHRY
Sequence of CDK19 (P24863 whole entry partner): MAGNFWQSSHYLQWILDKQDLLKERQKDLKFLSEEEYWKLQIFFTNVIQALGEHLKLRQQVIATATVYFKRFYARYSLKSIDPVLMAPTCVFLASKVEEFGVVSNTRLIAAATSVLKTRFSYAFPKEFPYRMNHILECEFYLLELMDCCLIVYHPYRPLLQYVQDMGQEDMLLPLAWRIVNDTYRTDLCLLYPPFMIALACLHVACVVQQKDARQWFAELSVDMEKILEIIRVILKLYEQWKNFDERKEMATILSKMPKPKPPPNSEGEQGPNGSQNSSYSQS
Sequence of CDK8 (P49336 whole entry): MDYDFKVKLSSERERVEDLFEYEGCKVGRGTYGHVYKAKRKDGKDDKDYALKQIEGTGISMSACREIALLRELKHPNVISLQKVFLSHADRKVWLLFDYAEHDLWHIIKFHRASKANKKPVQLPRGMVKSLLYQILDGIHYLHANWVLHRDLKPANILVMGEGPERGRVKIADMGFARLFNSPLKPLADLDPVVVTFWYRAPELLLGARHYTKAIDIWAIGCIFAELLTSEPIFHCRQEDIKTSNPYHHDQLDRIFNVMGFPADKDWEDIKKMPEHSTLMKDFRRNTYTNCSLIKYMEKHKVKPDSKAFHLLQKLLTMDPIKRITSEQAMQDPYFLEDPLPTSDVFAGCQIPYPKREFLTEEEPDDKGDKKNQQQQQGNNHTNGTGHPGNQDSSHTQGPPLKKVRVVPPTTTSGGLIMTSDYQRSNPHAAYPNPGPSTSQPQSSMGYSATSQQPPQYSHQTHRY
Sequence of CDK8 (P24863 whole entry partner): as the sequence (P24863 whole entry partner) above

COc1ccc(N2CCC(n3c(-c4nccnc4N)nc4c(C)nccc43)CC2)cc1 [Compound 2, 3-{1-[1-(4-methoxyphenyl)piperidin-4-yl]-4-methyl-1H-imidazo[4,5-c]pyridin-2-yl}pyrazin-2-amine]
EC150 (naive Th cells): 10.2 nM
IC50 (CDK8): 0.7 nM
airway reactivity (sRaw) (OVA-induced asthma model): suppressed an increase in airway reactivity
number of times of nasal rubbing ([1]; 1.0 mg/kg oral daily): significantly suppressed
number of times of nasal rubbing ([1]; 3.0 mg/kg oral daily): significantly suppressed
airway reactivity (sRaw) (Th1-type asthma model): suppressed an increase in airway reactivity
IC50 (CDK19): 1.9 nM

NC(=O)[C@H](Nc1cncc(-c2ccc(O)c(Cl)c2)c1)c1ccccc1 [(R)-2-[5-(3-Chloro-4-hydroxyphenyl)-pyridin-3-ylamino]-2-phenylacetamide]
EC150 (naive Th cells): 2.8 nM

TGF-β: hTGF-β1 (manufactured by R&D), used as control and in combination
proportion of Foxp3-GFP-positive cells [2]: 44.3%
proportion of Foxp3-positive cells [3]: 26.9%
proportion of Foxp3-positive cells [4]: 28.5%

N#Cc1ccc2ncnc(NCCc3ccccc3)c2c1 [Senexin A]
EC150 (naive Th cells): 192.2 nM
